# Experimental data from the kinase profiling compilation of Christmann-Franck et al. (2016).
# What was measured:
# Test in all cases: radiometric filter-binding kinase assay, Kinase HotSpot
# Settings in all cases: compound 0.5 µM; ATP 10 µM
# NEK11 (human) = NEK11 (human) (UniProt Q8NG66)
# MLTK (human) = MLTK (human) (UniProt Q9NYL2)
# EPHA5 (human) = EPHA5 (human) (UniProt P54756)
# CDK6 CCND3 (human) = CDK6 CCND3 (human) (UniProt P30281+Q00534)
# DYRK4 (human) = DYRK4 (human) (UniProt Q9NR20)
# DYRK4 (human), sequence (Q9NR20 whole entry, looked up): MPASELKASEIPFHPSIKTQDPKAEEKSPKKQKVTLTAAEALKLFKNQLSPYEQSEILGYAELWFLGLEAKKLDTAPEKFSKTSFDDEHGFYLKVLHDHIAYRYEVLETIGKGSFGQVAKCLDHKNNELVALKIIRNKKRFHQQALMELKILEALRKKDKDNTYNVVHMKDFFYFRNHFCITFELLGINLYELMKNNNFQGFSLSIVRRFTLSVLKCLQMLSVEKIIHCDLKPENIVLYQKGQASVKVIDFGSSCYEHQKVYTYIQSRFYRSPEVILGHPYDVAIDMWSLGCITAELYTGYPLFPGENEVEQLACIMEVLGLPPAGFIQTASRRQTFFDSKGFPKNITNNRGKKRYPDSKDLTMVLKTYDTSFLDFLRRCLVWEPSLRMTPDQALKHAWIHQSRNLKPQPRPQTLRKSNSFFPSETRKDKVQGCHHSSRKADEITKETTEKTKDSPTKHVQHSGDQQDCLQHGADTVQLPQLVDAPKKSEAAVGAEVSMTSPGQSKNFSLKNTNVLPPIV
# ULK1 (human) = ULK1 (human) (UniProt O75385)
# KDR (human) = KDR (human) (UniProt P35968)
# PRKD1 (human) = PRKD1 (human) (UniProt Q15139)
# MAP3K14 (human) = MAP3K14 (human) (UniProt Q99558)
# MARK3 (human) = MARK3 (human) (UniProt P27448)
# PRKCA (human) = PRKCA (human) (UniProt P17252)
# WNK3 (human) = WNK3 (human) (UniProt Q9BYP7)
# CSF1R (human) = CSF1R (human) (UniProt P07333)
# CSF1R (human), sequence (P07333 whole entry, looked up): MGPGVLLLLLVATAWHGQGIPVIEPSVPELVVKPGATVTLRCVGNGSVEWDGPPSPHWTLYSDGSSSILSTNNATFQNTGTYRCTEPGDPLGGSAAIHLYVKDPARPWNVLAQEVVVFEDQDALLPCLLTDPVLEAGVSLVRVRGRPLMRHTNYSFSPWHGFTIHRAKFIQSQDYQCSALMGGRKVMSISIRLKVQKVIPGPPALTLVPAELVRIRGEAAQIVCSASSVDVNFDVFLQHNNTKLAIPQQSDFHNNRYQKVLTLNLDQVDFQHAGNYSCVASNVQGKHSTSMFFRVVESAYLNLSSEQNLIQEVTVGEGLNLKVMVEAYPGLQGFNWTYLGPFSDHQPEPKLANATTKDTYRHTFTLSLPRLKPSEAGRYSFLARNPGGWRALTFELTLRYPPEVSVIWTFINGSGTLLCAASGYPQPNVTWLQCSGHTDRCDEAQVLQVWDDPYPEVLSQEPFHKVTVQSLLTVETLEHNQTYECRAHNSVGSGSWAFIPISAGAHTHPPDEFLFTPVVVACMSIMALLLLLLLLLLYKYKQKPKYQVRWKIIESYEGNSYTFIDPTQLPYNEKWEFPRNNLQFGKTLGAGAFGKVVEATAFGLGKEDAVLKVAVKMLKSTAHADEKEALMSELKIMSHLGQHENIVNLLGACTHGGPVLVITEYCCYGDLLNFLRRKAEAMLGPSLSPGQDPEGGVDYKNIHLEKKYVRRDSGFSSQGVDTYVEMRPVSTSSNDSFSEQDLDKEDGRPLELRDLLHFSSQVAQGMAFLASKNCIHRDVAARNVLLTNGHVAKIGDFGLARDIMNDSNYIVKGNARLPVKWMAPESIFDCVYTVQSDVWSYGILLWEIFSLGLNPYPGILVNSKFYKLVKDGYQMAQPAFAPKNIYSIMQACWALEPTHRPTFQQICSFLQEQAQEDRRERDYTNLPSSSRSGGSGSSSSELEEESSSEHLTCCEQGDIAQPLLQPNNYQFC
# MYLK (human) = MYLK (human) (UniProt Q15746)
# TEC (human) = TEC (human) (UniProt P42680)
# PIM1 (human) = PIM1 (human) (UniProt P11309)
# INSRR (human) = INSRR (human) (UniProt P14616)
# PTK2B (human) = PTK2B (human) (UniProt Q14289)
# PASK (human) = PASK (human) (UniProt Q96RG2)
# MAP3K2 (human) = MAP3K2 (human) (UniProt Q9Y2U5)
# HIPK1 (human) = HIPK1 (human) (UniProt Q86Z02)
# MAPK10 (human) = MAPK10 (human) (UniProt P53779)
# MAPK10 (human), sequence (P53779 whole entry, looked up): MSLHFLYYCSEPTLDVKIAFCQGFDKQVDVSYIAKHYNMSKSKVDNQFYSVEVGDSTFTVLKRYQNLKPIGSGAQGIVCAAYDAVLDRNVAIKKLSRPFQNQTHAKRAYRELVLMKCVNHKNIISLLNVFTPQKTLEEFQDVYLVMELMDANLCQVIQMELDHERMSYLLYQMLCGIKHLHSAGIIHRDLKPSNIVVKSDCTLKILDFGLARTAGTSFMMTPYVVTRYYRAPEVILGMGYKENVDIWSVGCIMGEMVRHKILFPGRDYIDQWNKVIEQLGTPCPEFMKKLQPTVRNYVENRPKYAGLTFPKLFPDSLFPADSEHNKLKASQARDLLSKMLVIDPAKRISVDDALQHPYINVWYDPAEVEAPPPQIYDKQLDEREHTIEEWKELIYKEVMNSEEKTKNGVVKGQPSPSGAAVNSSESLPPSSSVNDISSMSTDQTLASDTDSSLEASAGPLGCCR
# SGK2 (human) = SGK2 (human) (UniProt Q9HBY8)
# CDK2 CCNE1 (human) = CDK2 CCNE1 (human) (UniProt P24941+P24864)
# CDK2 CCNE1 (human), sequence (P24864 whole entry, looked up, other chains not shown): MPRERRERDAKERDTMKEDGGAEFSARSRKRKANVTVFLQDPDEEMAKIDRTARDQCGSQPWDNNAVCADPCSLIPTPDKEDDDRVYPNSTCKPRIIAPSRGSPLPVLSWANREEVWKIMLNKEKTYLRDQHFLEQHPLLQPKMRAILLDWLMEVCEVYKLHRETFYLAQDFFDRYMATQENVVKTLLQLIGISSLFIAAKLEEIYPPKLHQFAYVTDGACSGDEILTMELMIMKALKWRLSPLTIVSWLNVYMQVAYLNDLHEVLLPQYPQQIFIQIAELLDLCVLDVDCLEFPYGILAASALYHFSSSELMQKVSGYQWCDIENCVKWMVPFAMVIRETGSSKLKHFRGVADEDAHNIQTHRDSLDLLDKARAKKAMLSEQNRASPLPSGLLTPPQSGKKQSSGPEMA
# ROCK2 (human) = ROCK2 (human) (UniProt O75116)
# CAMK2G (human) = CAMK2G (human) (UniProt Q13555)
# STK11 (human) = STK11 (human) (UniProt Q15831)
# STK11 (human), sequence (Q15831 whole entry, looked up): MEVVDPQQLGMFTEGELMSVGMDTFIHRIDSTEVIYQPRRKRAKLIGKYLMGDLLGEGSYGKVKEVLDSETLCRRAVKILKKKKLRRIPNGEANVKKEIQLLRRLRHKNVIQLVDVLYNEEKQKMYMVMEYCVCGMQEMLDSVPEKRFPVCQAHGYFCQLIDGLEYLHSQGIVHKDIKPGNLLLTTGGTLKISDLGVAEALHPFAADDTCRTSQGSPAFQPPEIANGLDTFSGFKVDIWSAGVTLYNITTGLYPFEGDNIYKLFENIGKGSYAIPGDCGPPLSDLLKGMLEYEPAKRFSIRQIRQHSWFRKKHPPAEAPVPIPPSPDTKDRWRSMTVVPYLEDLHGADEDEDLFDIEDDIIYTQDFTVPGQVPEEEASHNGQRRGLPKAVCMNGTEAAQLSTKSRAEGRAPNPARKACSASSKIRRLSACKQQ
# FGFR1 (human) = FGFR1 (human) (UniProt P11362)
# SGK3 (human) = SGK3 (human) (UniProt Q96BR1)
# NEK3 (human) = NEK3 (human) (UniProt P51956)
# STK16 (human) = STK16 (human) (UniProt O75716)
# PDPK1 (human) = PDPK1 (human) (UniProt O15530)
# PDPK1 (human), sequence (O15530 whole entry, looked up): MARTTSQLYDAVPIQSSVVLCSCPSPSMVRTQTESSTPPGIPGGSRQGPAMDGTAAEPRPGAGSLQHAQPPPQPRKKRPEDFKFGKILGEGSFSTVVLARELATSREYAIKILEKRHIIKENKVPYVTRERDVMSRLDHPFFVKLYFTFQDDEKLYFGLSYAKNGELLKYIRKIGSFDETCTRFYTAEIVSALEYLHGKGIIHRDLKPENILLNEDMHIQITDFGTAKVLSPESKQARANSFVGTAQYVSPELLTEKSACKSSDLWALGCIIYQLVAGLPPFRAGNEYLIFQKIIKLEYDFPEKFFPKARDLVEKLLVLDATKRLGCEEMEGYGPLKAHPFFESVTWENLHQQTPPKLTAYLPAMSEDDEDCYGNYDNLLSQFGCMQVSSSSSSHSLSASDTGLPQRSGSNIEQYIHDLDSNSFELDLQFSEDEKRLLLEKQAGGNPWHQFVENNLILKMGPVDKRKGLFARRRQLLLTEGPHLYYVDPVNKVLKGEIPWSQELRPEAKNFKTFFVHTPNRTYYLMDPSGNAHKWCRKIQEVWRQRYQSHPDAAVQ
# MAPK11 (human) = MAPK11 (human) (UniProt Q15759)
# RPS6KA5 KD2 (human) = RPS6KA5 KD2 (human) (UniProt O75582)
# JAK3 JH1 JH2 (human) = JAK3 JH1 JH2 (human) (UniProt P52333)
# CAMK2A (human) = CAMK2A (human) (UniProt Q9UQM7)
# NEK9 (human) = NEK9 (human) (UniProt Q8TD19)
# NEK9 (human), sequence (Q8TD19 whole entry, looked up): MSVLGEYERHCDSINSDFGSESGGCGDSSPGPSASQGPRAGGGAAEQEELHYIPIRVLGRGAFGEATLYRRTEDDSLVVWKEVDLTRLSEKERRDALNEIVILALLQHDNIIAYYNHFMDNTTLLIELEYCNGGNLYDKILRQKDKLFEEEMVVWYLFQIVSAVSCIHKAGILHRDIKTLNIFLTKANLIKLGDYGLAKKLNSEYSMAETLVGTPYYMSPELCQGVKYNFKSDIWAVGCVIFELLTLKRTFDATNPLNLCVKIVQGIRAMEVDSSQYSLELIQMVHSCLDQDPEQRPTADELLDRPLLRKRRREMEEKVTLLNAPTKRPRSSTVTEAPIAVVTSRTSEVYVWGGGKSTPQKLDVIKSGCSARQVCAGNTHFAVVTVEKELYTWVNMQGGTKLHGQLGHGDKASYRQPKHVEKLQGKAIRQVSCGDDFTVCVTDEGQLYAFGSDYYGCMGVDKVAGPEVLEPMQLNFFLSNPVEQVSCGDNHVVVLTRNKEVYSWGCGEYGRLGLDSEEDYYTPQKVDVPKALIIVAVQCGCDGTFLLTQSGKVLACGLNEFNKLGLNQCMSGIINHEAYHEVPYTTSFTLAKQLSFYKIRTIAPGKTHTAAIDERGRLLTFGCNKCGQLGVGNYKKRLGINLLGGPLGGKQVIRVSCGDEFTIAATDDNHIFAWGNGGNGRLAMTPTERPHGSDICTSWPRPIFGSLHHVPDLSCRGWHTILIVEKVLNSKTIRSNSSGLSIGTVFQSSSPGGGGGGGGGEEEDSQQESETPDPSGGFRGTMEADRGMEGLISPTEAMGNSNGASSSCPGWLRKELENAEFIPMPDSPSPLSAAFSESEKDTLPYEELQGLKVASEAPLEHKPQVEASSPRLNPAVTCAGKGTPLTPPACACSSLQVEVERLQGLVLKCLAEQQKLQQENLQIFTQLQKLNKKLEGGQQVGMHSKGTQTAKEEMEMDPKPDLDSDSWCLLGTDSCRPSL
# PRKACA (human) = PRKACA (human) (UniProt P17612)
# MAPK14 (human) = MAPK14 (human) (UniProt Q16539)
# RPS6KA6 KD1 KD2 (human) = RPS6KA6 KD1 KD2 (human) (UniProt Q9UK32)
# CSNK1D (human) = CSNK1D (human) (UniProt P48730)
# GRK6 (human) = GRK6 (human) (UniProt P43250)
# NEK11 (human), sequence (Q8NG66 whole entry, looked up): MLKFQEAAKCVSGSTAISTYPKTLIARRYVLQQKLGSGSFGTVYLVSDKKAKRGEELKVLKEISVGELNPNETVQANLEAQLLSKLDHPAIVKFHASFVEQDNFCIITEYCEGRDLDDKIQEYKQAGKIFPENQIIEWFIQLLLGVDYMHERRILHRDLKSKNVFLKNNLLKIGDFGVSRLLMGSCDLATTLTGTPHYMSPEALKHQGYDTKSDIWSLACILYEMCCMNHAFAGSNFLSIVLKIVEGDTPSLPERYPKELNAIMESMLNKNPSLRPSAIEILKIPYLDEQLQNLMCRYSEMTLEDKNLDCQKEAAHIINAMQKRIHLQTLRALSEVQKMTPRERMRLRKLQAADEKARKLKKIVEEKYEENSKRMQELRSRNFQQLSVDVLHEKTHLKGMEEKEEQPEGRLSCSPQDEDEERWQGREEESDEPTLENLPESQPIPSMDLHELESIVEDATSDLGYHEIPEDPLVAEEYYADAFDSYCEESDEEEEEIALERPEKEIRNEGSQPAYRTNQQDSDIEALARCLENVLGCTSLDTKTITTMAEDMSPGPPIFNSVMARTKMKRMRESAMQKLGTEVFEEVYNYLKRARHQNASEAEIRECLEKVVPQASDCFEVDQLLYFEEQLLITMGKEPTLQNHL
structure (smiles),measurement,setting,value
CCc1nc(-c2ccc(OC)cc2)[nH]c1-c1ccncc1,residual activity,NEK11 (human),77.4%
same,residual activity,MLTK (human),106%
same,residual activity,EPHA5 (human),100%
same,residual activity,CDK6 CCND3 (human),101%
same,residual activity,DYRK4 (human),100%
same,residual activity,ULK1 (human),84.5%
same,residual activity,KDR (human),103%
same,residual activity,PRKD1 (human),100%
same,residual activity,MAP3K14 (human),118%
same,residual activity,MARK3 (human),101%
same,residual activity,PRKCA (human),107%
same,residual activity,WNK3 (human),97.3%
same,residual activity,CSF1R (human),100%
same,residual activity,MYLK (human),104%
same,residual activity,TEC (human),109%
same,residual activity,PIM1 (human),104%
same,residual activity,INSRR (human),102%
same,residual activity,PTK2B (human),94.6%
same,residual activity,PASK (human),96.3%
same,residual activity,MAP3K2 (human),98.2%
same,residual activity,HIPK1 (human),97.7%
same,residual activity,MAPK10 (human),100%
same,residual activity,SGK2 (human),103%
same,residual activity,CDK2 CCNE1 (human),93.7%
same,residual activity,ROCK2 (human),101%
same,residual activity,CAMK2G (human),106%
same,residual activity,STK11 (human),89.5%
same,residual activity,FGFR1 (human),88.1%
same,residual activity,SGK3 (human),99.3%
same,residual activity,NEK3 (human),92.4%
same,residual activity,STK16 (human),108%
same,residual activity,PDPK1 (human),96%
same,residual activity,MAPK11 (human),104%
same,residual activity,RPS6KA5 KD2 (human),107%
same,residual activity,JAK3 JH1 JH2 (human),96.1%
same,residual activity,CAMK2A (human),105%
same,residual activity,NEK9 (human),101%
same,residual activity,PRKACA (human),100%
same,residual activity,MAPK14 (human),113%
same,residual activity,RPS6KA6 KD1 KD2 (human),111%
same,residual activity,CSNK1D (human),95.1%
O=S(=O)(NCCNC/C=C/c1ccc(Br)cc1)c1cccc2cnccc12,residual activity,NEK11 (human),92.7%
same,residual activity,MLTK (human),105%
same,residual activity,EPHA5 (human),96.9%
same,residual activity,CDK6 CCND3 (human),96.6%
same,residual activity,DYRK4 (human),96.4%
same,residual activity,ULK1 (human),102%
same,residual activity,KDR (human),79.1%
same,residual activity,PRKD1 (human),98.7%
same,residual activity,MAP3K14 (human),83.6%
same,residual activity,MARK3 (human),96.2%
same,residual activity,PRKCA (human),85.7%
same,residual activity,WNK3 (human),93.1%
same,residual activity,CSF1R (human),97.7%
same,residual activity,MYLK (human),90.8%
same,residual activity,TEC (human),102%
same,residual activity,PIM1 (human),90.1%
same,residual activity,INSRR (human),103%
same,residual activity,PTK2B (human),85%
same,residual activity,PASK (human),94.5%
same,residual activity,MAP3K2 (human),91.5%
same,residual activity,HIPK1 (human),91.4%
same,residual activity,MAPK10 (human),92.6%
same,residual activity,SGK2 (human),84.2%
same,residual activity,CDK2 CCNE1 (human),99.3%
same,residual activity,ROCK2 (human),15.4%
same,residual activity,CAMK2G (human),98.7%
same,residual activity,STK11 (human),102%
same,residual activity,FGFR1 (human),87.6%
same,residual activity,SGK3 (human),78.8%
same,residual activity,GRK6 (human),93.5%
same,residual activity,NEK3 (human),94.4%
same,residual activity,STK16 (human),94.4%
same,residual activity,PDPK1 (human),94.1%
same,residual activity,MAPK11 (human),87.2%
same,residual activity,RPS6KA5 KD2 (human),39.4%
same,residual activity,JAK3 JH1 JH2 (human),122%
same,residual activity,CAMK2A (human),102%
same,residual activity,NEK9 (human),99.3%
same,residual activity,PRKACA (human),10.5%
same,residual activity,MAPK14 (human),105%
same,residual activity,RPS6KA6 KD1 KD2 (human),71.8%
Nc1ncnc2c1cnn2-c1ccccc1,residual activity,NEK11 (human),107%
same,residual activity,MLTK (human),92.5%
same,residual activity,EPHA5 (human),95.6%
same,residual activity,CDK6 CCND3 (human),92.2%
same,residual activity,DYRK4 (human),98.4%
same,residual activity,ULK1 (human),99.5%
same,residual activity,KDR (human),98.8%
same,residual activity,PRKD1 (human),98.1%
same,residual activity,MAP3K14 (human),120%
same,residual activity,MARK3 (human),86.1%
same,residual activity,PRKCA (human),103%
same,residual activity,WNK3 (human),97.2%
same,residual activity,CSF1R (human),105%
same,residual activity,MYLK (human),99.7%
same,residual activity,TEC (human),103%
same,residual activity,PIM1 (human),99.4%
same,residual activity,INSRR (human),106%
same,residual activity,PTK2B (human),108%
same,residual activity,PASK (human),96.8%
same,residual activity,MAP3K2 (human),89.5%
same,residual activity,HIPK1 (human),98.4%
same,residual activity,MAPK10 (human),100%
same,residual activity,SGK2 (human),98.4%
same,residual activity,CDK2 CCNE1 (human),93.9%
same,residual activity,ROCK2 (human),83.2%
same,residual activity,CAMK2G (human),105%
same,residual activity,STK11 (human),93.9%
same,residual activity,FGFR1 (human),93%
same,residual activity,SGK3 (human),92.3%
same,residual activity,GRK6 (human),92.3%
same,residual activity,NEK3 (human),93.5%
same,residual activity,STK16 (human),94.3%
same,residual activity,PDPK1 (human),104%
same,residual activity,MAPK11 (human),99.9%
same,residual activity,RPS6KA5 KD2 (human),89%
same,residual activity,JAK3 JH1 JH2 (human),97.4%
same,residual activity,CAMK2A (human),105%
same,residual activity,NEK9 (human),110%
same,residual activity,MAPK14 (human),89.2%
same,residual activity,RPS6KA6 KD1 KD2 (human),94.1%
same,residual activity,CSNK1D (human),79.5%
